Test results taken from ChEMBL document CHEMBL5096219, “Design, synthesis and biological evaluation of novel pyrazinone derivatives as PI3K/HDAC dual inhibitors” (Bioorg Med Chem, 2022).
Values belong to the compound of their own block, whether it stands above or below them.

Experiments:
[1] = biological target: T1, Protein deacetylase HDAC6 (Homo sapiens, UniProt Q9UBN7); assay: Inhibition of HDAC6 (unknown origin)
T1 sequence (Q9UBN7 whole entry): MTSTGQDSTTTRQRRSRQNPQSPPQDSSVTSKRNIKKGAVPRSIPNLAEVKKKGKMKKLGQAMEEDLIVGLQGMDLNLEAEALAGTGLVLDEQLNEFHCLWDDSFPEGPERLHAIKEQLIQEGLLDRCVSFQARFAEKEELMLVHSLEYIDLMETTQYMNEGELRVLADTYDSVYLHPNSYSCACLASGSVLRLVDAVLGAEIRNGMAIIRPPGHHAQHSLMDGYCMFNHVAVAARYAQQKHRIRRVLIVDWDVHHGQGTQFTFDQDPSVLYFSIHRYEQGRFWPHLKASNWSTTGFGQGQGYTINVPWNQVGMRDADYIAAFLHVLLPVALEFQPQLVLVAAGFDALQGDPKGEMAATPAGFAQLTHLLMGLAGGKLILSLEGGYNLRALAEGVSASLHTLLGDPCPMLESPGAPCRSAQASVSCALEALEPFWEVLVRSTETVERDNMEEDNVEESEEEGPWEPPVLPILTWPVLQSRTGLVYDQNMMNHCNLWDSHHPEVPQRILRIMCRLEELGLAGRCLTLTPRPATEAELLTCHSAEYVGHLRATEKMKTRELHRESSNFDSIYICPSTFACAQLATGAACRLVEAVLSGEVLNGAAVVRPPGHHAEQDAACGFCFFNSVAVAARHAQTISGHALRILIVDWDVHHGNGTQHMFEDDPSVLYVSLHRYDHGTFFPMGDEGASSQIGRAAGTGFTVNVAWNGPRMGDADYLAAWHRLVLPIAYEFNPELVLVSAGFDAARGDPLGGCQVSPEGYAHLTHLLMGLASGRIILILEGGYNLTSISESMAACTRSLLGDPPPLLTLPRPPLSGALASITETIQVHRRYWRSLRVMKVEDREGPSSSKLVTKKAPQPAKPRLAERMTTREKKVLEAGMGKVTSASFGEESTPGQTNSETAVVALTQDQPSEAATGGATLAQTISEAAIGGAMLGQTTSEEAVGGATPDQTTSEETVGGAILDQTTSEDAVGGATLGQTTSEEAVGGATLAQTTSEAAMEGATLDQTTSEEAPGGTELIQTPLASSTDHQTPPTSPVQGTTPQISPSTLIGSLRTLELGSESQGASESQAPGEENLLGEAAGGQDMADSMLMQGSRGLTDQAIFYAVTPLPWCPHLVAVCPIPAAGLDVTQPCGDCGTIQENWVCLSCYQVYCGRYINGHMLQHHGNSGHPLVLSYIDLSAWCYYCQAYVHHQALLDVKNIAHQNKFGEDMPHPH

[2] = biological target: Phosphatidylinositol 4,5-bisphosphate 3-kinase catalytic subunit alpha isoform (Homo sapiens, UniProt P42336); assay: Inhibition of PI3Kalpha (unknown origin) by mobility shift assay
K562 = assay: cells; format: functional, cell-based; conditions: Homo sapiens, K562, 72 h
Description: Antiproliferative activity against human K562 cells assessed as inhibition of cell proliferation incubated for 72 hrs by CCK8 assay

MV4-11 [3] = assay: cells; format: functional, cell-based; conditions: Homo sapiens, MV4-11, 72 h
Description: Antiproliferative activity against human MV4-11 cells assessed as inhibition of cell proliferation incubated for 72 hrs by CCK8 assay

[4] = biological target: T2, Protein deacetylase HDAC6 (Homo sapiens) (UniProt Q9UBN7); conditions: dose 100.0 nM
T2 sequence (whole entry): T1 sequence (Q9UBN7 whole entry)
Description: Inhibition of HDAC6 (unknown origin) at 100 nM

HL-60 = assay: cells; format: functional, cell-based; conditions: Homo sapiens, HL-60, 72 h
Description: Antiproliferative activity against human HL-60 cells assessed as inhibition of cell proliferation incubated for 72 hrs by CCK8 assay

MV4-11 [5] = assay: Induction of apoptosis in human MV4-11 cells assessed as early apoptotic cells at 1 uM incubated for 48 hrs by Annexin V-FITC/PI staining based flow cytometry (reference value: 0.95%); format: functional
MV4-11 [6] = assay: Induction of cell cycle arrest in human MV4-11 cells assessed as accumulation of cells at G2/M phase at 1 uM incubated for 48 hrs by […]PI staining based flow cytometry (reference value: 11.5%); format: functional
MV4-11 [7] = assay: Induction of cell cycle arrest in human MV4-11 cells assessed as accumulation of cells at S phase at 1 uM incubated for 48 hrs by […]PI staining based flow cytometry (reference value: 45.5%); format: functional
MV4-11 [8] = assay: Induction of apoptosis in human MV4-11 cells assessed as viable cells at 1 uM incubated for 48 hrs by Annexin V-FITC/PI staining based flow cytometry (reference value: 96.5%); format: functional; conditions: read-out: Activity
MV4-11 [9] = assay: Induction of apoptosis in human MV4-11 cells assessed as late apoptotic cells at 1 uM incubated for 48 hrs by Annexin V-FITC/PI staining based flow cytometry (reference value: 2.04%); format: functional
MV4-11 [10] = assay: Induction of cell cycle arrest in human MV4-11 cells assessed as accumulation of cells at G0/G1 phase at 1 uM incubated for 48 hrs by […]PI staining based flow cytometry (reference value: 33.1%); format: functional
MV4-11 [11] = assay: Induction of apoptosis in human MV4-11 cells assessed as necrotic cells at 1 uM incubated for 48 hrs by Annexin V-FITC/PI staining based flow cytometry (reference value: 0.51%); format: functional

Chain of Phosphatidylinositol 4,5-bisphosphate 3-kinase catalytic subunit alpha isoform (P42336 whole entry, canonical isoform): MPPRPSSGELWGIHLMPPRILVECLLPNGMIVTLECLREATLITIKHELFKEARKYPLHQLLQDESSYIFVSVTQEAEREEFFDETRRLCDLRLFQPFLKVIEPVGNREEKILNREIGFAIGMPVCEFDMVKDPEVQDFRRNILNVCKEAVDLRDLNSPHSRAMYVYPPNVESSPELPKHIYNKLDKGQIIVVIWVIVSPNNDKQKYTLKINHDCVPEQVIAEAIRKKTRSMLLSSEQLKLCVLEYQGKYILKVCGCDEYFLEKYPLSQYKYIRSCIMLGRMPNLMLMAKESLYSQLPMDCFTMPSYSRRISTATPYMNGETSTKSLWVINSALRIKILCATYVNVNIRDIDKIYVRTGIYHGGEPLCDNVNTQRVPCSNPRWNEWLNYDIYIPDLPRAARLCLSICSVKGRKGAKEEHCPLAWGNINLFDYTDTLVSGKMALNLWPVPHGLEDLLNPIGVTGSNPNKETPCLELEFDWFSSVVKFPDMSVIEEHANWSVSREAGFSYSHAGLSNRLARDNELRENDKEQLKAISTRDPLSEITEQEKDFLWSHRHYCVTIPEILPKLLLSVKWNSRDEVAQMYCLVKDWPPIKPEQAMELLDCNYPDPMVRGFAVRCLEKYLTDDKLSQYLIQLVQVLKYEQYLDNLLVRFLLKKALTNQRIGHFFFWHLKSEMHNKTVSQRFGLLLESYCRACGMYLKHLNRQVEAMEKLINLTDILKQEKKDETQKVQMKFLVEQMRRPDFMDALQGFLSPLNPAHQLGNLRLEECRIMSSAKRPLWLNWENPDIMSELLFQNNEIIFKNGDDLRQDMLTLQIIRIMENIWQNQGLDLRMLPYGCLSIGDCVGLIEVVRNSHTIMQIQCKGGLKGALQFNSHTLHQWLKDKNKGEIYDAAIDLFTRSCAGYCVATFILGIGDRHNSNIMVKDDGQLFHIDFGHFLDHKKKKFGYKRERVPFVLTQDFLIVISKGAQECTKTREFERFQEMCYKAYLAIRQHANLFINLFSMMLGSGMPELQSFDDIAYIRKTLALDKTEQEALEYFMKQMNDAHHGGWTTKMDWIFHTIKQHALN

SMILES: Nc1ncc(-c2cn(CCCCCCC(=O)NO)c(=O)c(N3CCOCC3)n2)cn1
- IC50 [2]: 0.127 µM
- IC50 (K562): 3.84 µM
- IC50 (MV4-11 [3]): 1.98 µM
- inhibition [4]: 73%
- IC50 [1]: 0.054 µM
- IC50 (HL-60): 18.4 µM

SMILES: Nc1ncc(-c2cc(N3CCOCC3)c(=O)n(Cc3ccc(C(=O)NO)cc3)c2)cn1
- inhibition [4]: 95%
- IC50 [1]: 0.02 µM

SMILES: O=C(CCCCCCC(=O)Nc1ccccc1)NO [VORINOSTAT]
- Activity (MV4-11 [5]): 9.99%
- Activity (MV4-11 [6]): 28.6%
- Activity (MV4-11 [7]): 5.62%
- viability at 1 µM (MV4-11 [8]): 76.1%
- Activity (MV4-11 [9]): 12.9%
- Activity (MV4-11 [10]): 43.2%
- Activity (MV4-11 [11]): 0.93%

SMILES: CN1CCN(c2nc(-c3cnc(N)nc3)cn(Cc3ccc(C(=O)NO)cc3)c2=O)CC1
- IC50 [1]: 0.0042 µM

SMILES: COC1CCN(c2nc(-c3cnc(N)nc3)cn(Cc3ccc(C(=O)NO)cc3)c2=O)CC1
- IC50 [1]: 0.0074 µM

SMILES: Nc1cc(C(F)(F)F)c(-c2cc(N3CCOCC3)nc(N3CCOCC3)n2)cn1 [BUPARLISIB]
- Activity (MV4-11 [5]): 1.37%
- IC50 (K562): 0.73 µM
- IC50 (MV4-11 [3]): 0.73 µM
- Activity (MV4-11 [6]): 9.96%
- Activity (MV4-11 [7]): 34.7%
- viability at 1 µM (MV4-11 [8]): 89%
- IC50 (HL-60): 1.51 µM
- Activity (MV4-11 [9]): 6.42%
- Activity (MV4-11 [10]): 48.1%
- Activity (MV4-11 [11]): 3.19%

SMILES: Nc1ncc(-c2cc(N3CCOCC3)c(=O)n(Cc3ccc(C(=O)NO)cc3)n2)cn1
- inhibition [4]: 94%
- IC50 [1]: 0.013 µM

SMILES: CCCn1cc(-c2cnc(N)nc2)nc(N2CCOCC2)c1=O
- IC50 [2]: 0.025 µM

SMILES: Nc1ncc(-c2cn(Cc3cccc(C(=O)NO)c3)c(=O)c(N3CCOCC3)n2)cn1
- IC50 [1]: 0.65 µM

SMILES: Nc1ncc(-c2cn(Cc3ccc(C(=O)NO)cc3)c(=O)c(N3CCCCC3)n2)cn1
- IC50 [1]: 0.0042 µM

SMILES: Nc1ncc(-c2cn(Cc3ccc(C(=O)NO)cc3)c(=O)c(Nc3ccccc3)n2)cn1
- IC50 [1]: 0.0069 µM

SMILES: Nc1ncc(-c2cn(CCCCCCCC(=O)NO)c(=O)c(N3CCOCC3)n2)cn1
- IC50 [2]: 0.278 µM
- IC50 (K562): 4.56 µM
- IC50 (MV4-11 [3]): 1.52 µM
- inhibition [4]: 27%
- IC50 [1]: 0.194 µM
- IC50 (HL-60): 9.87 µM

SMILES: Nc1ncc(-c2cn(CCCCCC(=O)NO)c(=O)c(N3CCOCC3)n2)cn1
- IC50 [2]: 0.157 µM
- IC50 (K562): > 50 µM
- IC50 (MV4-11 [3]): 19.7 µM
- inhibition [4]: 45%
- IC50 [1]: 0.109 µM
- IC50 (HL-60): 12.7 µM

Second part, the compound after the results:

- IC50 [1]: 0.03 µM
SMILES: O=C(NO)c1ccc(Cn2cc(-c3cn[nH]c3)nc(N3CCOCC3)c2=O)cc1

- inhibition [4]: 69%
- IC50 [1]: 0.035 µM
SMILES: O=C(NO)c1ccc(Cn2cc(-c3cncnc3)nc(N3CCOCC3)c2=O)cc1

- IC50 [1]: 0.0079 µM
SMILES: O=C(NO)c1ccc(Cn2cc(-c3ccoc3)nc(N3CCOCC3)c2=O)cc1

- IC50 [1]: 0.015 µM
SMILES: O=C(NO)c1ccc(Cn2cc(-c3ccc(CO)cc3)nc(N3CCOCC3)c2=O)cc1

- inhibition [4]: 92%
- IC50 [1]: 0.015 µM
SMILES: O=C(NO)c1ccc(Cn2cc(-c3cccnc3)nc(N3CCOCC3)c2=O)cc1

- inhibition [4]: 94%
- IC50 [1]: 0.014 µM
SMILES: O=C(NO)c1ccc(Cn2cc(-c3ccc(O)cc3)nc(N3CCOCC3)c2=O)cc1

- IC50 [1]: 0.032 µM
SMILES: Cc1noc(C)c1-c1cn(Cc2ccc(C(=O)NO)cc2)c(=O)c(N2CCOCC2)n1

- IC50 (K562): 0.59 µM
- IC50 (MV4-11 [3]): 0.07 µM
- IC50 [1]: 0.014 µM
- IC50 (HL-60): 0.58 µM
SMILES: O=C(NO)c1ccc(Cn2cc(-c3cccc(CO)c3)nc(N3CCOCC3)c2=O)cc1

- IC50 [1]: 0.021 µM
SMILES: Cn1cc(-c2cn(Cc3ccc(C(=O)NO)cc3)c(=O)c(N3CCOCC3)n2)cn1

- inhibition [4]: 101%
- IC50 [1]: 0.013 µM
SMILES: Nc1ccc(-c2cn(Cc3ccc(C(=O)NO)cc3)c(=O)c(N3CCOCC3)n2)cc1

- inhibition [4]: 91%
- IC50 [1]: 0.012 µM
SMILES: Nc1ccc(-c2cn(Cc3ccc(C(=O)NO)cc3)c(=O)c(N3CCOCC3)n2)cn1

- IC50 [2]: 0.336 µM
- IC50 (K562): 6.12 µM
- IC50 (MV4-11 [3]): 1.37 µM
- IC50 [1]: 0.0091 µM
- IC50 (HL-60): 4.29 µM
SMILES: CNc1ncc(-c2cn(Cc3ccc(C(=O)NO)cc3)c(=O)c(N3CCOCC3)n2)cn1

- IC50 [2]: 0.467 µM
- IC50 (K562): 3.84 µM
- IC50 (MV4-11 [3]): 0.09 µM
- inhibition [4]: 94%
- IC50 [1]: 0.023 µM
- IC50 (HL-60): 1.14 µM
SMILES: O=C(NO)c1ccc(Cn2cc(-c3cccc(O)c3)nc(N3CCOCC3)c2=O)cc1

- IC50 [2]: 0.197 µM
- IC50 (K562): 13.8 µM
- IC50 (MV4-11 [3]): 4.85 µM
- inhibition [4]: 92%
- IC50 [1]: 0.015 µM
- IC50 (HL-60): 21 µM
SMILES: Nc1ncc(-c2cn(Cc3ccc(C(=O)NO)cc3)c(=O)c(N3CCOCC3)n2)cn1
